Source: patent US20050288227A1, “Use of thioredoxin measurements for diagnostics and treatments” (priority 2002, published 2005)
Read-outs that look alike come from different tables or passages of the source.

Key:
[1] = system: non-small cell lung cancer; details: Phase II, cited from earlier work
[2] = system: metastatic renal cell carcinoma; details: Phase II; cited from earlier work
[3] = system: HDAC; details: literature statement, cited from earlier work
[4] = phase I; cited from earlier work
[5] = system: WI38-VA13 (SV-40 transformed human lung fibroblast); test: Cell growth (cell number, trypan blue / Guava); format: cell-based; details: VA13 cells, FIG. 2A
From the text: (§1) HeLa (human cervical carcinoma), WI38 (human lung fibroblast), WI38-VA13 (SV-40 transformed human lung fibroblast), MCF-7 (human breast adenocarcinoma), T-24 human bladder transitional cell carcinoma), and LNCAP (human prostate adenocarcinoma) were obtained from the American type culture collection and cultured in accordance with the instructions. ARP-1 (human multiple myeloma) was generously provided by Dr. J. Hardoc (Arkansas Cancer Research Center, Little Rock) and cultured as indicated by the source.
(§2) Cells were harvested by trypsinization. Cell number and viability were measured by trypan blue dye exclusion and by Guava PCA-96 via count flex reagent according to the manufacturer's instruction (Guava).

[6] = system: WI38 (human lung fibroblast); test: Cell growth (cell number, trypan blue / Guava); format: cell-based; details: WI38 cells, FIG. 2B
From the text: as §1, §2

[7] = system: TRX; test: Northern blot of TRX mRNA in WI38; format: cell-based, human; details: WI38 cultured with 5 μmol/l SAHA, FIG. 4A
Description: Cells were cultured and recovered by centrifugation and RNA was prepared as described (Richon, V. M., et al., 1996, Proc. Natl. Acad. Sci. USA. 93:5705-5708). Total RNA (10 μg) was analyzed by northern blotting using a ^32P-labeled 1.1-kb TBP-2 coding region cDNA probe or a 500 bp cDNA probe for human TRX (Butler et al., 2002, Proc. Natl. Acad. Sci. USA 99:11700-11705). Loading was determined using a ^32P labeled 50-mer 18s rRNA oligonucleotide.

[8] = system: solid and hematological tumors; details: cited from earlier work
[9] = system: TRX; test: Western blot of TRX protein in VA13; format: cell-based, human; details: VA13 cultured with 5 μmol/l SAHA, FIG. 4B
Description: (§3) Typically, whole cell lysates were prepared using a buffer (50 mM Tris-HCL pH 8, 300 mM NaCl, 5 mM EDTA, 0.5% NP-40, inhibitor pellet from Roche). Next, 10-25 μg of cell extract were subjected to standard SDS-poly acrylamide gel electrophoresis using 10%, 15%, and 18% criterion gels (Bio-Rad). After transferring to PVDF membrane (Amersham Biosciences), the membranes were blocked with 5% BSA PBS-Tween (0.1%). The membranes were then incubated with specific primary antibody and horseradish peroxidase-labeled secondary antibody. Immunoprecipitation was based on the protocol of Santa Cruz Biotechnology. Briefly, 100-500 μg of total cellular protein were applied and incubated with protein agarose (Ausubel, F. M., et al. Current Protocols in Molecular Biology. 10.16 John Wiley & Sons. 2001).
(§4) TBP-2 antiserum was generated in rabbits (Pocono Farms) using following sequence (peptide) CYM DVI PED HRL ESP (SEQ ID NO:7). Anti-TRX was prepared in the laboratory of Dr. Arne Holmgren (Karolinska institute) as a goat polyclonal antibody. Anti-tubulin was purchased from Oncogene.
(§5) TBP-2 has been identified as a protein that associates with the active (reduced) form of TRX, a dithiol-reducing redox regulatory protein (Nishiyama, A., et al., 1999, J. Biol. Chem. 274, 21645-21650). Binding of TBP-2 to TRX both inhibits the thiol-reducing activity and reduces the level of expression of TRX. […]

[10] = system: tumor growth; details: animals; cited from earlier work
[11] = system: WI38-VA13 (SV-40 transformed human lung fibroblast); test: SAHA-induced apoptosis / viability; format: cell-based
From the text: as §1, §2

[12] = system: WI38 (human lung fibroblast); test: SAHA-induced apoptosis / viability; format: cell-based; details: normal fibroblast WI38 cells, FIGS. 2-3
From the text: as §1, §2

[13] = system: acetylated histones in PMN cells; details: following a single oral dose; cited from earlier work
[14] = system: TRX; test: Western blot of TRX protein in WI38; format: cell-based, human; details: WI38 cultured with 5 μmol/l SAHA, FIG. 4B
Description: as §3, §4, §5

[15] = oral formulation of PB; cited from earlier work
[16] = system: acute myelogenous leukemia; details: a patient with acute myelogenous leukemia; cited from earlier work

## CC(=O)Nc1ccc(C(=O)Nc2ccccc2N)cc1 [CI-994]
[1]; 32 patients
  patients having a partial response to therapy: 7%
[1]
  patients having stable disease for over 8 weeks: 28%
[2]
  patients with stable disease for greater than 8 weeks: 58%
[3]
  HDAC inhibitory potency (level of activity): less potent than the corresponding hydroxamates and cyclic tetrapeptides

## O=C(/C=C/c1ccc(CN(CCO)CCc2c[nH]c3ccccc23)cc1)NO [LAQ824]
[3]
  HDAC inhibitory potency (level of activity): nanomolar inhibitor

## Nc1ccccc1NC(=O)c1ccc(CNC(=O)OCc2cccnc2)cc1 [MS-275, N-(2-aminophenyl)-4-[N-(pyridin-3-yl-methoxycarbonyl)aminomethyl] benzamide]
[4]
  half-life: longer than expected
[3]
  HDAC inhibitory potency (level of activity): less potent than the corresponding hydroxamates and cyclic tetrapeptides

## O=C(CCCCCCC(=O)Nc1ccccc1)NO [SAHA, suberoylanilide hydroxamic acid]
[5]
  SAHA dose that induces growth arrest: ≥ 2.5 µM
[6]
  SAHA dose that induces growth arrest: ≥ 2.5 µM
[7]
  TRX mRNA expression: increased significantly
[8]; oral SAHA, patients
  drug related deaths: no drug related deaths
  longest duration of therapy (durable responses): over 18 months
[8]; oral formulation of SAHA
  oral bioavailability: good oral bioavailibity
[9]
  TRX protein levels: quickly decrease to undetectable levels
[10]
  toxicity to the animal: no toxicity
[11]; transformed VA13, FIGS. 2-3
  growth arrest and apoptosis: induced growth arrest and apoptosis
[11]; transformed cells, after 24-48 hours of SAHA treatment, FIG. 3A
  SAHA concentration sufficient to induce significant apoptosis: 1.25 to 2.5 µmol/L
[12]
  apoptosis: little or no apoptosis
[13]
  persistence of accumulation of acetylated histones in PMN cells: up to 10 hrs
[14]
  TRX protein levels: increased significantly

## C/C=C1\NC(=O)[C@H]2CSSCC/C=C/[C@H](CC(=O)N[C@H](C(C)C)C(=O)N2)OC(=O)[C@H](C(C)C)NC1=O [depsipeptide]
[3]
  HDAC inhibitory potency (level of activity): active at nanomolar levels
[3]; listed as Depsipeptide
  HDAC inhibitory potency (level of activity): inhibits HDACs at nanomolar concentrations

## O=C(O)CCCc1ccccc1 [phenyl butyrate, Phenyl Butyrate]
[15]
  biologic active plasma concentrations reached: 0.5 mM
  oral bioavailability: good bioavailability
[3]
  HDAC inhibitory potency (level of activity): millimolar levels of activity

## CCCC(CCC)C(=O)O [valproic acid, Valproic Acid]
[16]
  clinical response: transient partial remission
[3]
  HDAC inhibitory potency (level of activity): millimolar levels of activity
